Reference: patent US12392776B2, “Methods and kits for detecting exosomal protein” (City University of Hong Kong, priority 2020, dated 2025)

Experiments:
Type in all cases: cell-based, human
[1] = test system: U251 cells; assay: NTA exosome release assay
Experimental: To investigate the correlation between the malignant transition of hypoxic GMs and their production and release of exosomes, the secretion assay of exosomes was conducted via using nanoparticle tracking analysis (NTA). U251 cells were tested under normoxic or hypoxic condition.
Briefly, a represents Exo-FBS medium, b represents Sodium-L-lactate (20 mM), c represents BAPTA-AM, d represents BAPTA-AM with the pretreatment of Sodium-L-lactate (20 mM). All chemicals were dissolved in the Exo-FBS medium containing 1% DMSO. All data were shown as the mean±SEM. Significance level: **P<0.01, *P<0.05, hypoxia vs. normoxia, No-treatment vs. BAPTA-AM, MCT1 KD virus vs. Empty backbone virus (control 1), CD147 antisense vs. antisense control (control 2).

[2] = test system: GMs; assay: Intracellular Ca2+ level (Fluo-4 AM Ca2+ assay / Fura Red imaging); settings: FIG. 23B
Experimental: To further investigate whether the change of intracellular Ca^2+ concentrations could be associated with hypoxia-driven enhanced exosome release, […], AM Ca^2+ imaging and Fluo-4 AM Ca^2+ assay were conducted with normoxic- and hypoxic-U251 cells.
To recapitulate the hypoxia-induced acidic TME, sodium-L-lactates (20 mM) were applied to the culture medium of GMs.

[3] = test system: HIF-1α

SMILES: CC(=O)OCOC(=O)CN(CC(=O)OCOC(C)=O)c1ccccc1OCCOc1ccccc1N(CC(=O)OCOC(C)=O)CC(=O)OCOC(C)=O [BAPTA-AM]
- exosome release ([1]; GMs with induction of MCT1 OE and CD147 OE, BAPTA-AM 20 μM, 100 μl added to 2.1 ml medium, FIG. 23A): marked decline in exosome release
- exosome release ([1]; GMs, lactate-stimulated release, BAPTA-AM with pretreatment of sodium-L-lactate 20 mM, 10 min, FIG. 23C): blocked
- exosome release ([1]; hypoxia-enhanced release from U251 cells, intracellular Ca2+ chelated with BAPTA-AM (20 μM)): blocked the enhanced release of exosomes
- intracellular Ca2+ level ([2]; GMs after sodium-L-lactate, BAPTA-AM 20 μM, 100 μl added to 2.1 ml medium): distinctive decline in intracellular Ca^2+ level

SMILES: [Cl-].[Cl-].[Co+2] [CoCl2]
- HIF-1α expression and nuclear localization [3]: increased HIF-1α expression and enhanced nuclear localization of HIF-1α

SMILES: C[C@H](O)C(=O)[O-].[Na+] [sodium-L-lactate]
- exosome release ([1]; GMs exposed to sodium-L-lactate 20 mM for 10 min, FIG. 23C): promote exosome release
- intracellular Ca2+ level ([2]; GMs, sodium-L-lactate 20 mM, 100 μl added to 2 ml medium): enhanced intracellular Ca^2+ level
